Data: ChEMBL document CHEMBL3885881, “DrugMatrix”

Species: Rattus norvegicus
Test: DrugMatrix - Regimen: Daily Repeat
Format: toxicity, organism-based, Sprague-Dawley
Design: regimen Daily Repeat, gender Male, age 6-8 weeks
Conditions: in vivo, po, route oral GAVAGE, dose level High, vehicle 100 % WATER; for BASOPHIL / EOSINOPHIL / ERYTHROCYTE COUNT / HEMATOCRIT / HEMOGLOBIN / LEUKOCYTE COUNT / LYMPHOCYTE / MEAN CORPUSCULAR HEMOGLOBIN / MEAN CORPUSCULAR HEMOGLOBIN CONCENTRATION / MEAN CORPUSCULAR VOLUME / MONOCYTE / NEUTROPHIL / PLATELET COUNT / ABSOLUTE BASOPHIL / ABSOLUTE EOSINOPHIL / ABSOLUTE LYMPHOCYTE / ABSOLUTE MONOCYTE: tissue Blood; for ALANINE AMINOTRANSFERASE / ALBUMIN / ALKALINE PHOSPHATASE / ASPARTATE AMINOTRANSFERASE / BLOOD UREA NITROGEN / CARBON DIOXIDE / CHLORIDE / CHOLESTEROL / CREATINE PHOSPHOKINASE / CREATININE / GLUCOSE / LACTATE DEHYDROGENASE / LIPASE / PHOSPHORUS / POTASSIUM / SODIUM / TOTAL BILIRUBIN / TOTAL PROTEIN / URIC ACID: tissue Plasma

With COCCc1ccc(OCC(O)CNC(C)C)cc1 (configuration not stated) [METOPROLOL] the BASOPHIL (120 mg/kg, 120 h, time 5 day) was 0.67%, the EOSINOPHIL (120 mg/kg, 120 h, time 5 day) was 4.2% and the “ERYTHROCYTE COUNT” value (120 mg/kg, 120 h, time 5 day) was 7.04 x10E6/uL. The HEMATOCRIT (120 mg/kg, 120 h, time 5 day) was 45.37%, the HEMOGLOBIN (120 mg/kg, 120 h, time 5 day) was 14.97 G/DL and the “LEUKOCYTE COUNT” value (120 mg/kg, 120 h, time 5 day) was 9.83 x10E3/uL. The LYMPHOCYTE (120 mg/kg, 120 h, time 5 day) was 70.57%, the “MEAN CORPUSCULAR HEMOGLOBIN” value (120 mg/kg, 120 h, time 5 day) was 21.3 pg and the “MEAN CORPUSCULAR HEMOGLOBIN CONCENTRATION” value (120 mg/kg, 120 h, time 5 day) was 33 G/DL. The “MEAN CORPUSCULAR VOLUME” value (120 mg/kg, 120 h, time 5 day) was 64.57 fL, the MONOCYTE (120 mg/kg, 120 h, time 5 day) was 2.6% and the NEUTROPHIL (120 mg/kg, 120 h, time 5 day) was 21.47%. For the same compound, the “PLATELET COUNT” value (120 mg/kg, 120 h, time 5 day) was 1018.67 x10E3/uL, the “ALANINE AMINOTRANSFERASE” value (120 mg/kg, 120 h, time 5 day) was 28.67 u/L and the ALBUMIN (120 mg/kg, 120 h, time 5 day) was 3.9 G/DL. For the same compound, the “ALKALINE PHOSPHATASE” value (120 mg/kg, 120 h, time 5 day) was 427.33 u/L, the “ASPARTATE AMINOTRANSFERASE” value (120 mg/kg, 120 h, time 5 day) was 68.67 u/L and the “BLOOD UREA NITROGEN” value (120 mg/kg, 120 h, time 5 day) was 16.33 mg/dL. The “CARBON DIOXIDE” value (120 mg/kg, 120 h, time 5 day) was 38.33 mmol/L, the CHLORIDE (120 mg/kg, 120 h, time 5 day) was 106.67 MEQ/L and the CHOLESTEROL (120 mg/kg, 120 h, time 5 day) was 62.33 mg/dL. For the same compound, the “CREATINE PHOSPHOKINASE” value (120 mg/kg, 120 h, time 5 day) was 168 u/L, the CREATININE (120 mg/kg, 120 h, time 5 day) was 0.4 mg/dL and the GLUCOSE (120 mg/kg, 120 h, time 5 day) was 168 mg/dL. The “LACTATE DEHYDROGENASE” value (120 mg/kg, 120 h, time 5 day) was 97 u/L, the LIPASE (120 mg/kg, 120 h, time 5 day) was 14 u/L and the PHOSPHORUS (120 mg/kg, 120 h, time 5 day) was 11.37 mg/dL. For the same compound, the POTASSIUM (120 mg/kg, 120 h, time 5 day) was 6.67 MEQ/L, the SODIUM (120 mg/kg, 120 h, time 5 day) was 147.67 MEQ/L and the “TOTAL BILIRUBIN” value (120 mg/kg, 120 h, time 5 day) was 0.47 mg/dL. For the same compound, the “TOTAL PROTEIN” value (120 mg/kg, 120 h, time 5 day) was 6.33 G/DL, the “URIC ACID” value (120 mg/kg, 120 h, time 5 day) was 1.27 mg/dL and the ABSOLUTE BASOPHIL (120 mg/kg, […], time 14 day) was 90 cells/µL. It also gave an ABSOLUTE EOSINOPHIL (120 mg/kg, […], time 14 day) of 60 cells/µL, an ABSOLUTE LYMPHOCYTE (120 mg/kg, […], time 14 day) of 10900 cells/µL and an ABSOLUTE MONOCYTE (120 mg/kg, […], time 14 day) of 270 cells/µL. For the same compound, the BASOPHIL (120 mg/kg, […], time 14 day) was 0.67%, the EOSINOPHIL (120 mg/kg, […], time 14 day) was 0.43% and the “ERYTHROCYTE COUNT” value (120 mg/kg, […], time 14 day) was 6.79 x10E6/uL. For the same compound, the HEMATOCRIT (120 mg/kg, […], time 14 day) was 41.53%, the HEMOGLOBIN (120 mg/kg, […], time 14 day) was 14.17 G/DL and the “LEUKOCYTE COUNT” value (120 mg/kg, […], time 14 day) was 13.77 x10E3/uL. For the same compound, the LYMPHOCYTE (120 mg/kg, […], time 14 day) was 78.87%, the “MEAN CORPUSCULAR HEMOGLOBIN” value (120 mg/kg, […], time 14 day) was 20.87 pg and the “MEAN CORPUSCULAR HEMOGLOBIN CONCENTRATION” value (120 mg/kg, […], time 14 day) was 34.13 G/DL. The “MEAN CORPUSCULAR VOLUME” value (120 mg/kg, […], time 14 day) was 61.17 fL, the MONOCYTE (120 mg/kg, […], time 14 day) was 1.33% and the NEUTROPHIL (120 mg/kg, […], time 14 day) was 17.47%. The “PLATELET COUNT” value (120 mg/kg, […], time 14 day) was 1228.67 x10E3/uL, the “ALANINE AMINOTRANSFERASE” value (120 mg/kg, […], time 14 day) was 37 u/L and the ALBUMIN (120 mg/kg, […], time 14 day) was 3.63 G/DL. For the same compound, the “ALKALINE PHOSPHATASE” value (120 mg/kg, […], time 14 day) was 379.33 u/L, the “ASPARTATE AMINOTRANSFERASE” value (120 mg/kg, […], time 14 day) was 68.67 u/L and the “BLOOD UREA NITROGEN” value (120 mg/kg, […], time 14 day) was 17.67 mg/dL. The “CARBON DIOXIDE” value (120 mg/kg, […], time 14 day) was 40.67 mmol/L, the CHLORIDE (120 mg/kg, […], time 14 day) was 107.33 MEQ/L and the CHOLESTEROL (120 mg/kg, […], time 14 day) was 51 mg/dL. For the same compound, the “CREATINE PHOSPHOKINASE” value (120 mg/kg, […], time 14 day) was 304.67 u/L, the CREATININE (120 mg/kg, […], time 14 day) was 0.37 mg/dL and the GLUCOSE (120 mg/kg, […], time 14 day) was 183.33 mg/dL. The “LACTATE DEHYDROGENASE” value (120 mg/kg, […], time 14 day) was 123.33 u/L, the LIPASE (120 mg/kg, […], time 14 day) was 10.67 u/L and the PHOSPHORUS (120 mg/kg, […], time 14 day) was 9.23 mg/dL. For the same compound, the POTASSIUM (120 mg/kg, […], time 14 day) was 6.17 MEQ/L, the SODIUM (120 mg/kg, […], time 14 day) was 144 MEQ/L and the “TOTAL BILIRUBIN” value (120 mg/kg, […], time 14 day) was 0.4 mg/dL. The “TOTAL PROTEIN” value (120 mg/kg, […], time 14 day) was 5.9 G/DL, the “URIC ACID” value (120 mg/kg, […], time 14 day) was 0.17 mg/dL and the “ABSOLUTE BASOPHIL” value (1200 mg/kg, 72 h, time 3 day) was 0 CELLS/uL. For the same compound, the “ABSOLUTE EOSINOPHIL” value (1200 mg/kg, 72 h, time 3 day) was 286.33 CELLS/uL, the “ABSOLUTE LYMPHOCYTE” value (1200 mg/kg, 72 h, time 3 day) was 11270.67 CELLS/uL and the “ABSOLUTE MONOCYTE” value (1200 mg/kg, 72 h, time 3 day) was 0 CELLS/uL.
